Test results taken from patent publication US12607620B2, “Devices and systems for mimicking heart function” (UNIVERSITY OF CENTRAL FLORIDA RESEARCH FOUNDATION, INC., priority 2013, dated 2026).

Key:
human cardiomyocytes [1] = assay: Cantilever contractile force measurement of human cardiomyocytes (AFM-like laser deflection detection); format: cell-based
Method: Spontaneous or electrical stimulation-evoked force generation of cardiac myocytes was measured based on optical detection or electrical detection of cantilever-bending. Optical detection of displacement of the end of the cantilever was based on the principle routinely used in atomic force microscopes (AFM) in which a laser beam was reflected from the cantilever to a sensor. The sensor detected the displacement of the laser beam caused by changes in the position of the cantilever. In this optical detection method, an automated electrical shutter was placed in the beam path. This placement minimized the exposure of the cells to the reflected laser light. Electrical detection of the displacement was based on piezoelectric principle that requires special design and materials for the fabrication of the cantilevers. Both detection methods enabled automation and high-throughput screening on myocyte contraction force. Peak contraction force and force-contraction velocity relationships were calculated based on the geometry of the cantilevers and the thickness of cultured cardiac myocytes (determined from immunostaining data). Compounds (such as norepinephrine, epinephrine, ouabain, verapamil, and sotalol) were applied using traditional methods to the medium and possible changes in force or force-velocity relationship were detected and analyzed using standard statistical methods.
A detection system similar to those used in atomic force microscope (AFM) system was designed for measuring deflection of the cantilevers during contraction. The entire system was assembled around an upright Olympus BX51WI electrophysiology microscope (Olympus Inc., Center Valley, PA). The detection system consisted of a class 2 red photodiode laser (Newport, Irvine, CA), a stimulation chamber, a 4-quadrant photodetector (Noah Industries, Melbourne, FL), and a computer with pClamp 10.0 data acquisition software (Molecular Devices, Union City, CA). The laser and photodetector (PD) were mounted on x-y-z-h translators (Newport, Irvine, CA), which were mounted on the underside of the microscope stage. The stimulation chamber was fabricated from 5 mm thick polycarbonate sheet. An approximately 15 mm×15 mm square chamber was milled out of the sheet and fitted with silver wires (0.015 inch diameter) for field stimulation. The silver wires were mounted parallel to each other with a separation of 15 mm. The bottom of the chamber was sealed using a 22 mm×22 mm glass coverslip. This created a transparent base through which the laser beam could easily pass. The silver wires were connected to an external pulse generator (A-M systems, Sequim, WA) capable of producing field stimulation pulses of varying intensity, frequency, and waveform. Both the pulse generator and PD were connected to an Axon Instruments series 1440 digitizer (Molecular Devices, Union City, CA) which was interfaced with the computer.
A detection system similar to that used in atomic force microscopy (AFM) was used in these experiments. Prior to recording, the cells were allowed to equilibrate for 15 min in the lab atmosphere at 37° C. Drugs were added cumulatively as follow: 0.1 μM, 0.3 μM, 1.0 μM, and 3.0 μM (norepinephrine); 0.1 μM, 1.0 μM, and 3.0 μM (epinephrine); 0.1 μM, 0.3 μM, 1.0 μM, and 3.0 μM (ouabain); and 0.3 μM, 1.0 μM, and 3.0 μM (verapamil). Washout was performed by rinsing the cells five (5) times with 1 mL of cell culture medium.

human cardiomyocytes [2] = assay: Microelectrode array (MEA) recording of electrical activity of patterned human cardiomyocytes; format: cell-based
Method: The cardiac myocytes were cultured on patterned metal MEAs (planar 10 μm electrodes, 200 μm separation, Multichannel-systems). A 60 channel amplifier (MEA1040, Multichannel-systems) was used to record electrical activity from the spontaneously beating cardiac cells. The same electrodes were also used for stimulation utilizing a stimulus generator (STG 1002, Multichannel systems). The cells were stimulated utilizing 500 mV, 1 ms wide bipolar pulses at 2 Hz. The recording medium was the same as the plating medium with the pH adjusted to 7.3 using HEPES buffer. After a 30 minute incubation period, APs were detected and recorded using built in functions of the Multichannel System software. […] The data was further analyzed using software written using Matlab and Clampfit (Axon instruments). […] The cardiomyocytes used in these experiments were derived from differentiated adult induced pluripotent stem cells purchased from Cellular Dynamics. In FIG. 27 and FIG. 28, the electrical activity of the human cardiomyocytes plated on patterned MEAs was recorded following 12 days in vitro using a Multichannel Systems 60 channel amplifier (MEA 1040, Multichannel Systems). Prior to recording, the cells were allowed to equilibrate for 15 min in the lab atmosphere at 37° C. Temperature was maintained with a TC02 temperature controller (Multichannel Systems). The cells were stimulated using a STG 1002 stimulator (Multichannel Systems) by applying 1 ms wide bipolar square pulses of 500 mV every 500 ms. The recording medium was the same as the plating medium. […] Data are represented as percentage changes compared to the control and expressed as mean +/−SEM. In FIG. 29, electrical activity of the human cardiomyocytes plated on patterned MEAs was recorded following 12 days in vitro (DIV) using a Multichannel Systems 60 channel amplifier (MEA 1040, Multichannel Systems). Prior to recording, the cells were allowed to equilibrate for 15 min in the lab atmosphere at 37° C. Temperature was maintained with a TC02 temperature controller (Multichannel Systems). The cells were stimulated using a STG 1002 stimulator (Multichannel Systems) by applying 1 ms wide bipolar square pulses of 500 mV every 500 ms. The recording medium was the same as the plating medium. Sotalol (Sigma, cat#S0278) was added to the bathing medium in increasing concentrations of 0 μM, 10 μM, 30 μM, 100 μM, and 300 μM.

[3] = cardiomyocytes derived from human iPSCs cultured on cantilevers (FIG. 31D)
[4] = norepinephrine concentration range 0.1-3 μM, human cardiac myocytes
[5] = sotalol 0-300 μM in bathing medium, human cardiomyocytes on patterned MEAs, 12 DIV, change vs control (FIG. 29)

NC[C@H](O)c1ccc(O)c(O)c1 [norepinephrine]
contractile force (human cardiomyocytes [1]; [3]): increasing
contractile frequency (human cardiomyocytes [1]; [3]): increasing
peak contraction force (human cardiomyocytes [1]; norepinephrine concentration range 0.1-3 μM, human cardiac myocytes on cantilevers, 14 days in vitro (FIG. 30A)): increased
QT interval (human cardiomyocytes [2]; [4]): decreased
minimal ISI (analogue of QT interval) (human cardiomyocytes [2]; [4]): decreased
spontaneous beating rate (human cardiomyocytes [2]; [4]): significantly increased

CC(C)NCC(O)c1ccc(NS(C)(=O)=O)cc1 (centres unmarked) [sotalol]
QT intervals (human cardiomyocytes [2]; [5]): significantly increased
mISI (minimum interspike interval) (human cardiomyocytes [2]; [5]): significantly increased
conduction velocity (human cardiomyocytes [2]; sotalol concentrations above 100 μM, human cardiomyocytes on patterned MEAs, 12 DIV): decreased

COc1ccc(CCN(C)CCC[C@@](C#N)(c2ccc(OC)c(OC)c2)C(C)C)cc1OC [verapamil]
peak force versus concentration (μM) (human cardiomyocytes [1]; human cardiomyocytes following administration of verapamil (FIG. 12C)): decrease
contraction peak force (human cardiomyocytes [1]; verapamil 0.3, 1.0, 3.0 μM cumulative, human cardiomyocytes on cantilevers, 14 days in vitro (FIG. 30D)): concentration dependently decreased
